Results from PubChem BioAssay (NCI).
Values joined by “and” are separate entries in the source; they are usually repeats but may differ in a detail not shown here. Equal values may be shown once.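 Interpolation was linear, between the two tested concentrations surrounding the appropriate level; five concentrations were tested over 48 hours in 96-well plates. Here, GI50 denotes the concentration required for 50% inhibition of growth. TGI marks complete inhibition of growth.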

How the values were obtained:
Assay in all cases: NCI tumour cell line growth inhibition, 48 h
786-0 renal = tested on: 786-0 renal
A498 renal = tested on: A498 renal
HCC-2998 colon = tested on: HCC-2998 colon
KM12 colon = tested on: KM12 colon
SF-268 CNS = tested on: SF-268 CNS
UACC-62 melanoma = tested on: UACC-62 melanoma
UO-31 renal = tested on: UO-31 renal
BT-549 breast = tested on: BT-549 breast
MDA-MB-435 = tested on: MDA-MB-435
PC-3 prostate = tested on: PC-3 prostate

Structure (SMILES)	TGI (786-0 renal) [µM]	TGI (A498 renal)	TGI (HCC-2998 colon)	TGI (KM12 colon) [µM]	TGI (SF-268 CNS) [µM]	TGI (UACC-62 melanoma) [µM]	TGI (UO-31 renal) [µM]	GI50 (786-0 renal)	GI50 (A498 renal)	GI50 (BT-549 breast)	TGI (BT-549 breast) [µM]	GI50 (HCC-2998 colon)	GI50 (KM12 colon)	GI50 (MDA-MB-435)	TGI (MDA-MB-435) [µM]	GI50 (PC-3 prostate)	TGI (PC-3 prostate) [µM]	GI50 (SF-268 CNS)	GI50 (UACC-62 melanoma)	GI50 (UO-31 renal)
CN(C)c1ccc(/C=N\N2C(=O)c3ccccc3C2=O)cc1	> 100	> 100 µM	> 100 µM	> 100	> 100	> 100	> 100													
CN(C)c1n/c(=N/c2ncn[nH]2)ss1	> 100	> 100 µM	> 100 µM	> 100	> 100	> 100	> 100													
CNCCCNc1nc2ccccc2c2c(=O)c3cc(Cl)ccc3sc12	3.2	7.41 µM	3.34 µM	2.89	3.01	3.04	2.42	1.71 µM	2.55 µM	13.3 µM	40.5	1.69 µM	1.48 µM	1.76 µM	3.19	1.52 µM	3.02	1.5 µM	1.62 µM	1.16 µM
COc1ccccc1S(=O)(=O)Nc1ccc2c(c1)CN(C)C(=O)N2	> 100	22.6 µM and 10.9 µM	> 65.1 µM and 81.5 µM	> 100	> 100	> 100	> 100	7.79 µM and 8.82 µM	1.5 µM and 2.25 µM	9.98 µM and 26.3 µM	> 100	6.76 µM and 9.52 µM	14.6 µM and 7.41 µM	4.24 µM and 2.63 µM	> 100	10.7 µM and 16.3 µM	> 100	20 µM and 24.7 µM	1.26 µM and 1.12 µM	1.41 µM and 1.05 µM
O=C(O)C1(Cc2cccc(Nc3nccs3)n2)CCC(Oc2cccc(Cl)c2F)CC1 (centres undefined)	40.3	19.4 µM	34.2 µM	29.3	> 100		79.8	15.5 µM	3.95 µM	14.6 µM	32.1	18.2 µM	0.204 µM			17.4 µM	84.3	25.1 µM		16.3 µM
COc1ccc(C(=O)COc2cccc(/C=C3\CSc4ccc(C)cc4C3=O)c2)cc1	> 100	> 100 µM		> 100	72.9	> 100	> 100	38.5 µM	> 100 µM	27.6 µM	> 100		3.69 µM	3.59 µM	83.9	5.86 µM	> 100	19.3 µM	14.2 µM	19.9 µM
O=C(NNC(=O)c1cc(/C=C/c2cccc([N+](=O)[O-])c2)[nH]c(=S)n1)Nc1ccc(Cl)cc1	> 100	> 100 µM	> 100 µM	> 100	> 100	> 100	> 100													
COC(OC)[C@@H](C)[C@H](O)[C@](C)(O)C1OC(C)(C)OC(C(C)C=C(C)C)C1C (some centres undefined)	> 100	> 100 µM		> 100	> 100	> 100	> 100													
COc1ccc(-c2ccc(/C=N/n3c(C)nn(CN4CCN(C)CC4)c3=S)o2)c([N+](=O)[O-])c1	> 100		> 100 µM	42.9	> 100	> 100	> 100	39.4 µM		> 100 µM	> 100	34.7 µM	17.7 µM	14.2 µM	31	24.9 µM	92	28.2 µM	55.4 µM	> 100 µM
O=C(NO)C(=O)Nc1ccc(Cl)cc1[N+](=O)[O-]	> 100	> 100 µM	> 100 µM	> 100	> 100	> 100	> 100													
Cn1c(=S)c2[nH]c(SCCN3CCCC3)nc2n(C)c1=O	> 100	> 100 µM		> 100	> 100	> 100	> 100				> 100				> 100		> 100			
CCC1CCc2nc3sc(C(=O)Nc4ccccc4C)c(N)c3cc2C1 (centres undefined)	> 100	> 100 µM	> 100 µM	> 100	> 100	> 100	> 100	0.371 µM	0.313 µM	0.558 µM	> 100	4.42 µM	0.502 µM			0.622 µM	> 100	0.706 µM	0.329 µM	0.998 µM
CCCCCCCCCCCCN(O)C(=O)c1ccccc1	49.2	88.3 µM	> 100 µM	> 100	72.2	> 100	> 100													
CCOC(=O)NC(=O)c1cn(CCN2CCN(C(=O)CCCCCCCCCCNc3ncnc4nc[nH]c34)CC2)c(=O)[nH]c1=O	> 100		> 100 µM	> 100	> 100	> 100	> 100													
COc1ccc(/C(=N/NC(N)=O)C(c2ccc(OC)cc2)C2C(=O)Oc3ccccc32)cc1 (centres undefined)	> 100		> 100 µM	> 100	> 100	> 100	> 100													
Cc1cc(C)c(S(=O)(=O)ONC(=O)OC(C)(C)C)c(C)c1	> 100	> 100 µM	> 100 µM	> 100	> 100	> 100	> 100													
O=C1/C(=C/c2ccccc2)CN(C(=O)OCc2ccccc2)C/C1=C\c1ccccc1	18.5	> 31.6 µM	18.3 µM	14.8	30.7	20.2	24				33.2		2.68 µM				57.7			
COc1cc(-c2cc(=O)c3cc(C)c(C)c(C(=O)O)c3o2)cc(OC)c1OC	> 100	> 100 µM	> 100 µM	> 100	> 100	> 100	> 100													
O=C(O)Cn1c(=O)[nH]c(=O)c2c1ncn2Cc1ccccc1	> 100	> 100 µM		> 100	> 100	> 100	> 100													
Cc1ccc(C)c(NC(=O)CCc2nc(=S)[nH][nH]2)c1	> 100	> 100 µM	> 100 µM	> 100	> 100	> 100	> 100													
